Measurements: patent US7816345B2, “Phosphorus-containing prodrugs” (Metabasis Therapeutics, Inc., priority 1999, dated 2010)

How the values were obtained:
mouse = experiment: Byproduct toxicity testing in vivo (Example N)
Method: Plasma samples are subjected to a standard chemistry panel in which markers of liver function are evaluated.

rat hepatocytes = experiment: Activation in isolated rat hepatocytes, intracellular triphosphate generation (Examples G, H); format: cell-based; conditions: 250 μM, two hours of incubation
Method: (§1) Methods: Hepatocytes were prepared from fed, dexamethasone-induced Sprague-Dawley rats (300 g) according to the procedure of Berry and Friend (Berry, M. N., Friend, D. S. J. Cell Biol. 43, 506-520 (1969)) as modified by Groen (Groen, A. K. et al. Eur J. Biochem 122, 87-93 (1982)). Hepatocytes (62 mg wet weight/ml) were incubated in 2 ml Krebs bicarbonate buffer containing 10 mM glucose, and 1 mg/ml BSA. Incubations were carried out in a 95% oxygen, 5% carbon dioxide atmosphere in closed, 50-ml Falcon tubes submerged in a rapidly shaking water bath (37° C.). 3.1 and 3.2 were dissolved in methanol to yield 25 mM stock solutions, and then diluted into the cell suspension to yield a final concentration of 250 μM. Two hours following administration, aliquots of the cell suspension were removed and spun through a silicon/mineral oil layer into 10% perchloric acid. […] Detection was by uv absorbance at 254 nm. Peak areas were quantified by comparison of peak areas to authentic standards spiked into naive hepatocyte extracts.
Methods: 3.2 and acyclovir were evaluated in isolated rat hepatocytes at 250 μM as described in Example G.

[1] = tested on: P450 isozymes (CYP3A4, CYP1A2, CYP2C9) in human microsomal protein; conditions: 0-100 μM inhibitor, 250 μM prodrug, 37° C.
Method: Prodrugs are evaluated for human microsome-catalyzed conversion to MPO2—(NHR^6−) in the absence and presence of specific inhibitors of three major P450 isozymes: ketoconazole (CYP3A4), furafylline (CYP1A2), and sulfaphenazole CYP2C9).
Methods: Reactions (0.5 ml @37° C.) consist of 0.2 M KH2PO4, 13 mM glucose-6-phosphate, 2.2 mM NADP+, 1 unit of glucose-6-phosphate dehydrogenase, 0-2.5 mg/ml human microsomal protein (In Vitro Technologies, Inc.), 250 μM prodrug, and 0-100 μM P450 isozyme inhibitor. Reactions are stopped by addition of methanol to a concentration of 60%, and filtered ([…] filter). MPO2—(NHR^6−) is quantified by standard reverse phase, ion-pairing, or ion exchange HPLC methods. Eluted peaks are quantified relative to authentic standards of known concentration.

[2] = tested on: hepatocytes isolated from rats in which CYP3A4 expression was induced; experiment: Activation in hepatocytes from dexamethasone-induced rats (Example J); format: cell-based, rat; conditions: two hours of incubation
Method: as §1, with “acid. The cell extracts in the acid layers were neutralized by the addition of 0.3 volumes of 3M KOH/3M KHCO3, and the extract was then centrifuged, filtered (0.2 micron) and loaded onto an anion exchange HPLC column equilibrated with 70% A (10 mM ammonium phosphate pH 3.5, 6% ETOH) and 30% B (1 M ammonium phosphate pH 3.5, 6% ETOH).” for “acid.”, “extracts. […]” for “extracts.”

rat embryos in culture = conditions: cited from earlier work
[3] = tested on: glucose production in isolated rat hepatocytes; experiment: Inhibition of glucose production in rat hepatocytes (Example I); format: cell-based; conditions: for IC50: lactate/pyruvate as substrates, 1 hour
Method: Methods: Isolated rat hepatocytes were prepared from fasted Sprague Dawley rats (250-300 g) as described in Example G. Hepatocytes (75 mg wet weight/ml) were incubated in 1 ml Krebs bicarbonate buffer containing 10 mM glucose, and 1 mg/ml BSA. Incubations were carried out in a 95% oxygen, 5% carbon dioxide atmosphere in closed, 50-ml Falcon tubes submerged in a rapidly shaking water bath (37° C.). After 10 minutes of equilibration, lactate and pyruvate were added to 10 mM and 1 mM concentrations, respectively. Addition of these gluconeogenic substrates was immediately followed by the addition of test compound to concentrations ranging from 1-100 μM. After 1 hour, an aliquot (0.25 ml) was removed, and transferred to an Eppendorf tube and centrifuged. The resulting supernatant (50 μl) was then assayed for glucose content using a Glucose Oxidase kit (Sigma Chemical Co.) as per the manufacturer's instructions.

FBPase = target: T1, FBPase (Homo sapiens, UniProt P09467); experiment: FBPase inhibition in vitro; format: biochemical
T1 sequence (P09467 1-338): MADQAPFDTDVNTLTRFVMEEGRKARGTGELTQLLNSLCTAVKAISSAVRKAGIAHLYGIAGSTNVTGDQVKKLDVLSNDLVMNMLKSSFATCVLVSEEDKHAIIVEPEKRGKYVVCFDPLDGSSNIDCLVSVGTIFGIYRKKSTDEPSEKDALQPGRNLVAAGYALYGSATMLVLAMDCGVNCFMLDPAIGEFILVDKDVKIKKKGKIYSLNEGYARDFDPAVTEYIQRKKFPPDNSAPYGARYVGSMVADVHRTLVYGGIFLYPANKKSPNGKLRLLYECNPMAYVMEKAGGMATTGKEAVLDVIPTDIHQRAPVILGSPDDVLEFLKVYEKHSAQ

[4] = Chemical stability in potassium phosphate buffers (Example A); format: physicochemical; conditions: pH 7.0 potassium phosphate buffer, room temperature, 12-hour incubation
Method: Methods: Aliquots of a 10 μg/mL solution of Compound 1.3 in potassium phosphate buffers at pH 3 and 7 (room temperature) were sampled hourly for 12 hours. Samples were analyzed by reverse phase HPLC with use of a Beckman Ultrasphere C8 column (4.6×250 mm). The column was equilibrated and eluted with a gradient from 50 mM sodium phosphate pH 5.5 to 80% acetonitrile at a flow rate of 1.0 mL/min. Detection was at 254 nm. Under these conditions, Compound 1.3 was separated from 2-Amino-5-isobutyl-4-[2-(5-phosphonomonoamide)furanyl]thiazole, and from 2-Amino-5-isobutyl-4-(2-furanyl)thiazole (retention times=17, 15.8, and 15.6 min., respectively).

human recombinant CYP3A4 = target: T2, human recombinant CYP3A4 (Homo sapiens, UniProt P08684); experiment: Activation by recombinant CYP3A4 (Example F); format: in vitro ADME; conditions: microsomes from baculovirus-infected insect cells co-expressing CYP3A4 and cytochrome p450 reductase
T2 construct: purchased Panvera Corp., Madison, Wis; host or cells: baculovirus-infected insect cells (microsomes)
T2 sequence (P08684 2-503): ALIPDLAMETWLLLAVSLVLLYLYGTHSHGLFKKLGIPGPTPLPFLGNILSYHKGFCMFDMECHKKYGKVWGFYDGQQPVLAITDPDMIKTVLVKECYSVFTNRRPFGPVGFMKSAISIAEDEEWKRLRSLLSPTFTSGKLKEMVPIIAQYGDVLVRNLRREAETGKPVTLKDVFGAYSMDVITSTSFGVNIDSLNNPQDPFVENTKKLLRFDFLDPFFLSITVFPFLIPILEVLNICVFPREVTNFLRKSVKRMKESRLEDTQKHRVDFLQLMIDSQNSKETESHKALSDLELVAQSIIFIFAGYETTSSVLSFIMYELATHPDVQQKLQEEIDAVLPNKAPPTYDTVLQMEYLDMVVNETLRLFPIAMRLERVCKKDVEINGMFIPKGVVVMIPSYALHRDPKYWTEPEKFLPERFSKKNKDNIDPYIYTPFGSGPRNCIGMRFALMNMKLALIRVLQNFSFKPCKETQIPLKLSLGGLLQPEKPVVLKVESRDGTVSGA
Method: Activation of 1.3 was evaluated in reactions containing microsomes from baculovirus-infected insect cells co-expressing human recombinant CYP3A4 and cytochrome p450 reductase (Panvera Corp., Madison, Wis.).
Methods: Reaction mixture composition was similar to that described in Example D. Reactions were terminated by addition of methanol to a final concentration of 60% and products were analyzed by HPLC as described in Example A.

SMILES: CC(=O)Nc1ccc(O)cc1 [Acetaminophen]
- reduction of hepatic glutathione (mouse; 50, 250 and 500 mg/kg): dose-dependent reduction
- depletion of hepatic glutathione (mouse; highest dose): > 80%

SMILES: Nc1ncnc2c1ncn2[C@@H]1O[C@H](COP2(=O)NC(c3ccccc3)CCO2)[C@@H](O)[C@@H]1O (stereo partly drawn) [Compound 3.1, 5′-O-(2-oxo-4-Phenyl-1,3,2-oxazaphosphorin-2-yl)-9-β-D-arabinofuranosyl-adenine]
- Intracellular concentration of nucleoside triphosphate (AraATP from 3.1, acyclovir-triphosphate from 3.2) (rat hepatocytes): 15.7 ± 16 nmol/g

SMILES: CC(=O)N1CCN(c2ccc(OCC3COC(Cn4ccnc4)(c4ccc(Cl)cc4Cl)O3)cc2)CC1 (centres unmarked) [Ketoconazole]
- inhibition of formation of MPO2—(NHR^6−) from prodrug [1]: inhibits the formation of MPO2—(NHR^6−) in a dose-dependent fashion

SMILES: CSc1sc(N)nc1-c1ccc(P2(=O)OC(c3ccccc3)CCN2C)o1 (centres unmarked) [Compound 1.7, 2-Amino-5-methylthio-4-{2-[5-(N-methyl-1-phenyl-1,3-propyl)phosphoramido]furanyl}thiazole]
- levels of 2-Amino-5-methylthio-4-[2-(5 phosphono)furanyl]thiazole formed [2]: 20.5 ± 3 nmol/g

SMILES: C=CC(=O)c1ccccc1 [Phenyl vinyl ketone]
- teratogenic activity (rat embryos in culture): lacks teratogenic activity

SMILES: Nc1ccc(S(=O)(=O)Nc2ccnn2-c2ccccc2)cc1 [sulfaphenazole]
- inhibition of formation of MPO2—(NHR^6−) from prodrug [1]: no significant inhibition

SMILES: Cc1nc2c([nH]1)c(=O)n(C)c(=O)n2Cc1ccco1 [furafylline]
- inhibition of formation of MPO2—(NHR^6−) from prodrug [1]: no significant inhibition

SMILES: CC(C)Cc1sc(N)nc1-c1ccco1 [2-Amino-5-isobutyl-4-(2-furanyl)thiazole]
- IC50 ([3]; Rattus norvegicus, Hepatocyte): 2.5 µM

SMILES: CC(C)Cc1sc(N)nc1-c1ccc(P2(=O)NCCC(c3ccccc3)O2)o1 (centres unmarked) [Compound 1.3, 2-Amino-5-isobutyl-4-{2-[5-(1-phenyl-1,3-propyl)phosphoramido]furanyl}thiazole]
- IC50 [3]: 8.5 µM
- lower potency relative to 2-Amino-5-isobutyl-4-(2-furanyl)thiazole ([3]; ratio of IC50's for glucose production): ~3 fold
- inhibition of FBPase in vitro (FBPase): not an inhibitor
- stability [4]: fully stable
- rate of generation of 2-Amino-5-isobutyl-4-[2-(5-phosphonomonoamide)furanyl]thiazole (human recombinant CYP3A4): 4.2 nmoles/min./nmole CYP3A4
